In experiment [1] the test system is E. faecium L4001. The experiment is described as follows: MIC, liquid dilution test in minimal medium (96-well microtitre plate). The note with it: Enterococcus faecium, L4001, read-out: MIC E. faecium L4001. The class given is cell-based. As for the experimental part:
(§1) Determination of the Minimum Inhibitory Concentration (MIC)
(§2) The minimum inhibitory concentration (MIC) is the minimum concentration of an antibiotic with which the growth of a test microbe is inhibited over 18-24 h. The inhibitor concentration can in these cases be determined by standard microbiological methods (see, for example, The National Committee for Clinical Laboratory Standards. Methods for dilution antimicrobial susceptibility tests for bacteria that grow aerobically; approved standard-fifth edition. NCCLS document M7-A5 [ISBN 1-56238-394-9]. NCCLS, 940 West Valley Road, Suite 1400, Wayne, Pa. 19087-1898 USA, 2000). The MIC of the compounds of the invention is determined in the liquid dilution test on the 96-well microtitre plate scale. The bacterial microbes are cultivated in a minimal medium (18.5 mM Na2HPO4, 5.7 mM KH2PO4, 9.3 mM NH4Cl, 2.8 mM MgSO4, 17.1 mM NaCl, 0.033 μg/ml thiamine hydrochloride, 1.2 μg/ml nicotinic acid, 0.003 μg/ml biotin, 1% glucose, 25 μg/ml of each proteinogenic amino acid with the exception of phenylalanine; [H.-P. Kroll; unpublished]) with addition of 0.4% BH broth (test medium). In the case of Enterococcus faecium L4001, heat-inactivated fetal calf serum (FCS; GibcoBRL, Germany) is added to the test medium in a final concentration of 10%. Overnight cultures of the test microbes are diluted to an OD578 of 0.001 (to 0.01 in the case of enterococci) in fresh test medium, and incubated 1:1 with dilutions of the test substances (1:2 dilution steps) in test medium (200 μl final volume). The cultures are incubated at 37° C. for 18-24 hours; enterococci in the presence of 5% CO2.
(§3) The lowest substance concentration in each case at which bacterial growth was no longer visible is defined as the MIC. […] The compounds show a graded antibacterial effect against most of the test microbes.

The subject of experiment [2] is S. aureus E33. Described as above. The format is cell-based. The note with it: Staphylococcus aureus, E33, read-out: MIC S. aureus E33. As for the experimental part:
as §1, §2, §3

The test system of experiment [3] is S. aureus T17. The description is as above. The class given is cell-based. Here is the method:
as §1, §2, §3
The S. aureus strain T17 is isolated in vivo. CFW1 mice are infected intraperitoneally with 4×10^7 S. aureus 133 cells per mouse. 0.5 h after the infection, the animals are treated intravenously with 50 mg/kg biphenomycin B. The kidneys are removed from the surviving animals on day 3 after the infection. After homogenization of the organs, the homogenates are plated out as described for RN4220Bi^R on antibiotic-free and antibiotic-containing agar plates and incubated at 37° C. overnight. […] About 20 of these colonies are tested for the biphenomycin B MIC, and a colony with an MIC of >50 μM is selected for further cultivation, and the strain is referred to a T17.

For experiment [4], the target named is S. aureus 133 Translation. The experiment is described as follows: S. aureus in vitro transcription-translation assay (S30 extract, firefly luciferase reporter). The class given is biochemical. An excerpt:
In vitro Transcription-Translation with S. aureus Extracts
Construction of an S. aureus Luciferase Reporter Plasmid
A reporter plasmid which can be used in an in vitro transcription-translation assay from S. aureus is constructed by using the plasmid pBESTluc (Promega Corporation, USA). The E. coli tac promoter present in this plasmid in front of the firefly luciferase is replaced by the capA1 promoter with appropriate Shine-Dalgarno sequence from S. aureus. The primers CAPFor 5′-CGGCCAAGCTTACTCGGAT-[…] […]-3′ and CAPRev 5′-[…]-3′ are used for this. The primer CAPFor contains the capA1 promoter, the ribosome binding site and the 5′ region of the luciferase gene. After PCR using pBESTluc as template it is possible to isolate a PCR product which contains the firefly luciferase gene with the fused capA1 promoter. This is, after restriction with ClaI and HindIII, ligated into the vector pBESTluc which has likewise been digested with ClaI and HindIII. The resulting plasmid pla is able to replicate in E. coli and be used as template in the S. aureus in vitro transcription-traslation assay.
Preparation of S30 Extracts from S. aureus
Six litres of BHI medium are inoculated with a 250 ml overnight culture of an S. aureus strain and allowed to grow at 37° C. until the OD600 run is 2-4. The cells are harvested by centrifugation and washed in 500 ml of cold buffer A (10 mM Tris acetate, pH 8.0, 14 mM Magnesium acetate, 1 mM DTT, 1 M KCl). After renewed centrifugation, the cells are washed in 250 ml of cold buffer A with 50 mM KCl, and the resulting pellets are frozen at −20° C. for 60 min. The pellets are thawed on ice in 30 to 60 min and taken up to a total volume of 99 ml in buffer B (10 mM Tris acetate, pH 8.0, 20 mM Magnesium acetate, 1 mM DTT, 50.mM KCl). 1.5 ml portions of lysostaphin (0.8 mg/ml) in buffer B are introduced into 3 precooled centrifuge cups and each mixed with 33 ml of the cell suspension. The samples are incubated at 37° C., shaking occasionally, for 45 to 60 min, before 150 μl of a 0.5 M DTT solution are added. The lysed cells are centrifuged at 30 000×g and 4° C. for 30 min. The cell pellet is taken up in buffer B and then centrifuged again under the same conditions, and the collected supernatants are combined. The supernatants are centrifuged again under the same conditions, and 0.25 volume of buffer C (670 mM Tris acetate, pH 8.0, 20 mM Magnesium acetate, 7 mM Na3 phosphoenolpyruvate, 7 mM DTT, 5.5 mM ATP, 70 μM amino acids (complete from Promega), 75 μg of pyruvate kinase (Sigma, Germany)/ml are added to the upper ⅔ of the supernatant. The samples are incubated at 37° C. for 30 min. The supernatants are dialysed against 2 l of dialysis buffer (10 mM Tris acetate, pH 8.0, 14 mM Magnesium acetate, 1 mM DTT, 60 mM Potassium acetate) in a dialysis tube with a 3500 Da cut-off with one buffer change at 4° C. overnight. The dialysate is concentrated to a protein concentration of about 10 mg/ml by covering the dialysis tube with cold PEG 8000 powder (Sigma, Germany) at 4° C. The S30 extracts can be stored in aliquots at −70° C.
Determination of the IC50 in the S. aureus in vitro Transcription-Translation Assay Inhibition of protein biosynthesis of the compounds can be shown in an in vitro transcription-translation assay. The assay is based on the cell-free transcription and translation of firefly luciferase using the reporter plasmid pla as template and cell-free S30 extracts obtained from S. aureus. The activity of the resulting luciferase can be detected by luminescence measurement.
The amount of S30 extract or plasmid pla to be employed must be tested anew for each preparation in order to ensure an optimal concentration in the assay. 3 μl of the substance to be tested, dissolved in 5% DMSO, are introduced into an MTP. Then 10 μl of a suitably concentrated plasmid solution pla are added. […]
(A reporter such as luciferase makes a cellular process visible.)

Experiment [5] deals with S. aureus 133. Briefly: Systemic infection with S. aureus 133 (mouse sepsis model). The class given is in vivo. The note with it: female CFW1 mice, i.p. infection, i.v. therapy 30 minutes after infection, survival recorded for 6 days.
Experimental: Systemic Infection with S. aureus 133
For this purpose, S. aureus 133 cells are cultured overnight in BH broth (Oxoid, Germany). The overnight culture was diluted 1:100 in fresh BH broth and expanded for 3 hours. The bacteria which are in the logarithmic phase of growth are centrifuged and washed twice with buffered physiological saline solution. A cell suspension in saline solution with an extinction of 50 units is then adjusted in a photometer (Dr Lange LP 2W). After a dilution step (1:15), this suspension is mixed 1:1 with a 10% strength mucine suspension. 0.2 ml of this infection solution is administered i.p. per 20 g of mouse. This corresponds to a cell count of about 1-2×10 microbes/mouse. The i.v. therapy takes place 30 minutes after the infection. Female CFW1 mice are used for the infection test. The survival of the animals is recorded for 6 days. The animal model is adjusted so that untreated animals die within 24 h after the infection.
Experiment [6] has as its system E. faecium L4001. The experiment is described as follows: MIC, alternative method: agar dilution test with 20% defibrinated horse blood. The class given is cell-based. As to conditions: Enterococcus faecium. Here is the method:
(§4) Alternative Method for Determining the Minimum Inhibitory Concentration (MIC)
(§5) The minimum inhibitory concentration (MIC) is the minimum concentration of an antibiotic with which the growth of a test microbe is inhibited over 18-24 h. The inhibitor concentration can be determined by standard microbiological methods using modified medium in an agar dilution test (see, for example, the National Committee for Clinical Laboratory Standards. Methods for dilution antimicrobial susceptibility tests for bacteria that grow aerobically; approved standard-fifth edition. NCCLS document M7-A5 [ISBN 1-56238-394-9]. NCCLS, 940 West Valley Road, Suite 1400, Wayne, Pa. 19087-1898 USA, 2000). The bacterial microbes are cultivated on 1.5% agar plates containing 20% defibrinated horse blood. The test microbes, which are incubated on Columbia blood agar plates (Becton-Dickinson) overnight, are diluted in PBS, adjusted to a microbe count of about 5×10^5 microbes/ml and placed as drops (1-3 μl) on test plates. The test substances contain various dilutions of the test substances (1:2 dilution stages). The cultures are incubated at 37° C. in the presence of 5% CO2 for 18-24 hours.
(§6) The lowest concentration of each substance at which no visible bacterial growth occurs is defined as the MIC and is reported in μg/ml.

The test system of experiment [7] is S. aureus E33. The experiment is described as above. The format is cell-based. As to conditions: Staphylococcus aureus. Here is the method: as §4, §5, §6
Experiment [8] relates to S. aureus T17. The experiment is described as above. The class given is cell-based. As to conditions: Staphylococcus aureus. As for the experimental part: as §4, §5, §6
In experiment [9] the test system is S. aureus RN4220Bi^R. Briefly: MIC of the isolated resistant colony. The note with it: colony selected as strain RN4220Bi^R. The format is cell-based. As for the experimental part:
The S. aureus strain RN4220Bi^R is isolated in vitro. […] Whereas about 1×10^7 cells grow on the antibiotic-free plate, about 100 colonies grow on the antibiotic-containing plate, corresponding to a resistance rate of 1×10^−5. Some of the colonies grown on the antibiotic-containing plate are tested for the biphenomycin B MIC. One colony with an MIC of >50 μM is selected for further use, and the strain is referred to as RN4220Bi^R.

Setting [10] is: Staphylococcus aureus, T17, read-out: MIC S. aureus T17.
The mark [11] stands for this setting: L4001, read-out: MIC E. faecium L4001.
Setting [12] is: E33, read-out: MIC S. aureus E33.
[13] abbreviates: T17, read-out: MIC S. aureus T17.
The mark [14] stands for this setting: L4001, Table B, agar dilution, 20% defibrinated horse blood, read-out: MIC E. faecium L4001.
Setting [15] is: E33, Table B, agar dilution, 20% defibrinated horse blood, read-out: MIC S. aureus E33.
Where [16] appears, read: T17, Table B, agar dilution, 20% defibrinated horse blood, read-out: MIC S. aureus T17.

SMILES strings stand for the structures. ≈ marks a conversion by molar mass, not a printed value. Counter-ions that a name gives are not always drawn.

As usually defined, the MIC is the least concentration at which growth counts as inhibited. By IC50 is commonly meant the point on the concentration scale where inhibition reaches its midpoint. A low value points to greater potency in that assay. Regarding `CN1C(=O)[C@H](C[C@@H](O)CN)NC(=O)[C@@H](N)Cc2cc(ccc2O)-c2ccc(O)c(c2)C[C@H]1C(=O)NC1CCNCC1` [Example 2, (8S,11S,14S)-14-Amino-11-[(2R)-3-amino-2-hydroxypropyl]-5,17-dihydroxy-9-methyl-10,13-dioxo-N-piperidin-4-yl-9,12-diazatricyclo[14.3.1.1^2,6]henicosa-1(20),2(21),3,5,16,18-hexaene-8-carboxamide trihydrochloride], the MIC came to 25 µM in [1], 1.6 µM in experiment [2] and 6.3 µM in experiment [3] (setting [10]). In experiment [4] (Table A), this compound displayed a 50% inhibitory concentration (IC50) of 200 nM. In addition, in experiment [5], the “therapeutic effect ED100” value is 1.25 mg/kg.

In the case of `CN1C(=O)[C@H](CCCN)NC(=O)[C@@H](N)Cc2cc(ccc2O)-c2ccc(O)c(c2)C[C@H]1C(=O)NCCN` [Example 3, (8S,11S,14S)-14-Amino-N-(2-aminoethyl)-11-(3-aminopropyl)-5,17-dihydroxy-9-methyl-10,13-dioxo-9,12-diazatricyclo[14.3.1.1^2,6]henicosa-1(20),2(21),3,5,16,18-hexaene-8-carboxamide trihydrochloride], the minimal inhibitory concentration (MIC) came out at 25 µM in experiment [1]; 1.6 µM in experiment [2]; 3.1 µM in [3] (setting [10]); 16 µg/mL in experiment [6] (setting [11]); 2 µg/mL in experiment [7] (setting [12]); 4 µg/mL in [8] (setting [13]). Besides, the IC50 in [4] (Table A) and in [4] (Table B) was 350 nM throughout.

Consider `NCCCNCCCNC(=O)[C@@H]1Cc2cc(ccc2O)-c2ccc(O)c(c2)C[C@H](N)C(=O)N[C@@H](CCCN)C(=O)N1` [Example 42, (8S,11S,14S)-14-amino-11-(3-aminopropyl)-N-{3-[(3-aminopropyl)amino]propyl}-5,17-dihydroxy-10,13-dioxo-9,12-diazatricyclo[14.3.1.1^2,6]henicosa-1(20),2(21),3,5,16,18-hexaene-8-carboxamide], for which half-maximal inhibition in [4] (Table B) (IC50) required 400 nM. In addition, the MIC is 4 µg/mL (≈ 7.02 µM) in experiment [6] (setting [14]), 1 µg/mL (≈ 1.76 µM) in experiment [7] (setting [15]) and 2 µg/mL (≈ 3.51 µM) in experiment [8] (setting [16]).

In [4] (Table B), `NCCC[C@@H]1NC(=O)[C@@H](N)Cc2cc(ccc2O)-c2ccc(O)c(c2)C[C@@H](C(=O)NCCN(CCN)CCN)NC1=O` [Example 43, (8S,11S,14S)-14-amino-11-(3-aminopropyl)-N-{2-[bis(2-aminoethyl)amino]ethyl}-5,17-dihydroxy-10,13-dioxo-9,12-diazatricyclo[14.3.1.1^2,6]henicosa-1(20),2(21),3,5,16,18-hexaene-8-carboxamide] gave an IC50 of 150 nM. Further, the minimum inhibitory concentration (MIC) in experiment [6] (setting [14]) was 16 µg/mL (≈ 27.4 µM); in [7] (setting [15]), 1 µg/mL (≈ 1.71 µM); in experiment [8] (setting [16]), 2 µg/mL (≈ 3.42 µM).

Compound `NCCC[C@H](N)CNC(=O)[C@@H]1Cc2cc(ccc2O)-c2ccc(O)c(c2)C[C@H](N)C(=O)N[C@@H](CCCN)C(=O)N1` [Example 45, (8S,11S,14S)-14-amino-11-(3-aminopropyl)-N-[(2S)-2,5-diaminopentyl]-5,17-dihydroxy-10,13-dioxo-9,12-diazatricyclo[14.3.1.1 ^2,6]henicosa-1(20),2(21),3,5,16,18,-hexaene-8-carboxamide] had an IC50 in experiment [4] (Table B) of 100 nM. The MIC in experiment [6] (setting [11]) stood at 2 µg/mL (≈ 3.6 µM); in experiment [7] (setting [12]), 0.5 µg/mL (≈ 0.9 µM); in experiment [8] (setting [13]), 2 µg/mL (≈ 3.6 µM).

`NC[C@H](O)C[C@@H]1NC(=O)[C@@H](N)Cc2cc(ccc2O)-c2ccc(O)c(c2)C[C@@H](C(=O)O)NC1=O` [biphenomycin B, reference compound]: the MIC in experiment [3] (colony selected as strain T17, isolated from kidney of treated mice) was above 50 µM; in [9], above 50 µM.
